Data from publication PMC4581874 (PLoS ONE, 2015).

Key:
PKCζ (h) = target: T1, PKCζ (h) (Homo sapiens, UniProt Q05513); experiment: Kinase profile, PKCζ; type: biochemical; conditions: mean ± S.D.
T1 construct: purchased Millipore (now Eurofins) KinaseProfiler / IC50 Profiler
Procedure: (§1) All kinase assays were carried out using KinaseProfiler^TM and IC50 Profiler^TM (Millipore UK Ltd., Dundee, UK. Now Eurofins Scientific, Dundee, UK). All IC50 data were presented as the mean values. The Curves obtained to determine IC50 values were shown in Supporting Information (S1 Fig).

EGFR (L858R) = target: T2, EGFR (L858R) (Homo sapiens, UniProt P00533, L858R); experiment: In vitro kinase assay, EGFR (L858R); type: biochemical
T2 construct: purchased Millipore UK Ltd., Dundee, UK (now Eurofins Scientific); KinaseProfiler / IC50 Profiler service
Procedure: as §1

phosphorylated EGFR = experiment: Western blot of EGFR phosphorylation in HCC827 cells; type: cell-based; conditions: 3 h
Procedure: Fig 3 MKP101 inhibits proliferation of epidermal growth factor receptor (EGFR)-tyrosine kinase inhibitor (TKI)-sensitive non-small cell lung cancer (NSCLC) cells. (A) Inhibition of HCC827 cell proliferation. Cells were incubated for 72 h with a range of concentrations of MKP101, and cell viability was measured using the WST-1 assay. […] (B) Inhibition of EGFR phosphorylation in HCC827 cells. Western blot analysis using antibodies to phosphorylated and total EGFR from a representative experiment is shown. Cells were incubated for 3 h at the indicated concentration. (C) Graph showing the relative intensities of the total and phosphorylated EGFR as determined by band densitometry. IC50, half-maximal inhibitory concentration.

CDK5/p35 (h) = target: T3, CDK5/p35 (h) (Homo sapiens, UniProt Q00535); experiment: Kinase profile, CDK5/p35; type: biochemical; conditions: mean ± S.D.
T3 construct: purchased Millipore (now Eurofins) KinaseProfiler / IC50 Profiler
Procedure: as §1

PKCβI (h) = target: T4, PKCβI (h) (Homo sapiens, UniProt P05771); experiment: Kinase profile, PKCβI; type: biochemical; conditions: mean ± S.D.
T4 construct: purchased Millipore (now Eurofins) KinaseProfiler / IC50 Profiler
Procedure: as §1

FGFR3 = target: T5, FGFR3 (Homo sapiens, UniProt P22607); experiment: In vitro kinase assay, FGFR3; type: biochemical
T5 construct: purchased Millipore UK Ltd., Dundee, UK (now Eurofins Scientific); KinaseProfiler / IC50 Profiler service
Procedure: as §1

PhKγ2 (h) = target: T6, PhKγ2 (h) (Homo sapiens, UniProt P15735); experiment: Kinase profile, PhKγ2; type: biochemical; conditions: mean ± S.D.
T6 construct: purchased Millipore (now Eurofins) KinaseProfiler / IC50 Profiler
Procedure: as §1

cKit = target: T7, cKit (Homo sapiens, UniProt P10721); experiment: In vitro kinase assay, cKit; type: biochemical
T7 construct: purchased Millipore UK Ltd., Dundee, UK (now Eurofins Scientific); KinaseProfiler / IC50 Profiler service
Procedure: as §1

GSK3β (h) = target: T8, GSK3β (h) (Homo sapiens, UniProt P49841); experiment: Kinase profile, GSK3β; type: biochemical; conditions: mean ± S.D.
T8 construct: purchased Millipore (now Eurofins) KinaseProfiler / IC50 Profiler
Procedure: as §1

Abl (h) = target: T9, Abl (h) (Homo sapiens, UniProt P00519); experiment: Kinase profile, Abl; type: biochemical; conditions: mean ± S.D.
T9 construct: purchased Millipore (now Eurofins) KinaseProfiler / IC50 Profiler
Procedure: as §1

PKCδ (h) = target: T10, PKCδ (h) (Homo sapiens, UniProt Q05655); experiment: Kinase profile, PKCδ; type: biochemical; conditions: mean ± S.D.
T10 construct: purchased Millipore (now Eurofins) KinaseProfiler / IC50 Profiler
Procedure: as §1

CDK1/cyclin B (h) = target: T11, CDK1/cyclin B (h) (Homo sapiens, UniProt P06493); experiment: Kinase profile, CDK1/cyclin B; type: biochemical; conditions: mean ± S.D.
T11 construct: purchased Millipore (now Eurofins) KinaseProfiler / IC50 Profiler
Procedure: as §1

PKCμ (h) = target: T12, PKCμ (h) (Homo sapiens, UniProt Q15139); experiment: Kinase profile, PKCμ; type: biochemical; conditions: mean ± S.D.
T12 construct: purchased Millipore (now Eurofins) KinaseProfiler / IC50 Profiler
Procedure: as §1

SAPK2a (h) = target: T13, SAPK2a (h) (Homo sapiens, UniProt Q16539); experiment: Kinase profile, SAPK2a; type: biochemical; conditions: mean ± S.D.
T13 construct: purchased Millipore (now Eurofins) KinaseProfiler / IC50 Profiler
Procedure: as §1

VEGFR-2 = target: T14, VEGFR-2 (Homo sapiens, UniProt P35968); experiment: In vitro kinase assay, VEGFR-2; type: biochemical
T14 construct: purchased Millipore UK Ltd., Dundee, UK (now Eurofins Scientific); KinaseProfiler / IC50 Profiler service
Procedure: as §1

HCC827 cells = experiment: HCC827 cell viability assay; type: cell-based; conditions: Homo sapiens, 72 h, read-out: HCC827 IC50 (anti-proliferative activity)
Procedure: HCC827 cells were purchased from the American Type Culture Collection (ATCC, Manassas, VA, USA). […] Human umbilical vein endothelial cells (HUVECs, ScienCell Research Laboratories, Carlsbad, CA, USA) were cultured in endothelial growth medium-2 (EGM-2; Lonza, Walkersville, MD, USA) from passages 3 to 6.
After a 24-hour incubation, the cells were treated with a series of test compound dilutions for 72 hours. Cell viability was assessed using EZ-Cytox (Daeil Lab Service, Seoul, South Korea) according to the manufacturer’s instructions.
Cells were incubated for 72 h with a range of concentrations of MKP101, and cell viability was measured using the WST-1 assay. […] Western blot analysis using antibodies to phosphorylated and total EGFR from a representative experiment is shown. Cells were incubated for 3 h at the indicated concentration. (C) Graph showing the relative intensities of the total and phosphorylated EGFR as determined by band densitometry. IC50, half-maximal inhibitory concentration.

FLT3 (h) = target: T15, FLT3 (h) (Homo sapiens, UniProt P36888); experiment: Kinase profile, FLT3; type: biochemical; conditions: mean ± S.D.
T15 construct: purchased Millipore (now Eurofins) KinaseProfiler / IC50 Profiler
Procedure: as §1

CDK3/cyclin E (h) = target: T16, CDK3/cyclin E (h) (Homo sapiens, UniProt Q00526); experiment: Kinase profile, CDK3/cyclin E; type: biochemical; conditions: mean ± S.D.
T16 construct: purchased Millipore (now Eurofins) KinaseProfiler / IC50 Profiler
Procedure: as §1

CaMKIIγ (h) = target: T17, CaMKIIγ (h) (Homo sapiens, UniProt Q13555); experiment: Kinase profile, CaMKIIγ; type: biochemical; conditions: mean ± S.D.
T17 construct: purchased Millipore (now Eurofins) KinaseProfiler / IC50 Profiler
Procedure: as §1

PKCθ (h) = target: T18, PKCθ (h) (Homo sapiens, UniProt Q04759); experiment: Kinase profile, PKCθ; type: biochemical; conditions: mean ± S.D.
T18 construct: purchased Millipore (now Eurofins) KinaseProfiler / IC50 Profiler
Procedure: as §1

ROCK-II (h) = target: T19, ROCK-II (h) (Homo sapiens, UniProt O75116); experiment: Kinase profile, ROCK-II; type: biochemical; conditions: mean ± S.D.
T19 construct: purchased Millipore (now Eurofins) KinaseProfiler / IC50 Profiler
Procedure: as §1

PDGFRβ = target: T20, PDGFRβ (Homo sapiens, UniProt P09619); experiment: In vitro kinase assay, PDGFRβ; type: biochemical
T20 construct: purchased Millipore UK Ltd., Dundee, UK (now Eurofins Scientific); KinaseProfiler / IC50 Profiler service
Procedure: as §1

PKG1β (h) = target: T21, PKG1β (h) (Homo sapiens, UniProt Q13976); experiment: Kinase profile, PKG1β; type: biochemical; conditions: mean ± S.D.
T21 construct: purchased Millipore (now Eurofins) KinaseProfiler / IC50 Profiler
Procedure: as §1

PKCη (h) = target: T22, PKCη (h) (Homo sapiens, UniProt P24723); experiment: Kinase profile, PKCη; type: biochemical; conditions: mean ± S.D.
T22 construct: purchased Millipore (now Eurofins) KinaseProfiler / IC50 Profiler
Procedure: as §1

PKBβ (h) = target: T23, PKBβ (h) (Homo sapiens, UniProt P31751); experiment: Kinase profile, PKBβ; type: biochemical; conditions: mean ± S.D.
T23 construct: purchased Millipore (now Eurofins) KinaseProfiler / IC50 Profiler
Procedure: as §1

MAPK2 (h) = target: T24, MAPK2 (h) (Homo sapiens, UniProt P28482); experiment: Kinase profile, MAPK2; type: biochemical; conditions: mean ± S.D.
T24 construct: purchased Millipore (now Eurofins) KinaseProfiler / IC50 Profiler
Procedure: as §1

T20 sequence (P09619 33-1106): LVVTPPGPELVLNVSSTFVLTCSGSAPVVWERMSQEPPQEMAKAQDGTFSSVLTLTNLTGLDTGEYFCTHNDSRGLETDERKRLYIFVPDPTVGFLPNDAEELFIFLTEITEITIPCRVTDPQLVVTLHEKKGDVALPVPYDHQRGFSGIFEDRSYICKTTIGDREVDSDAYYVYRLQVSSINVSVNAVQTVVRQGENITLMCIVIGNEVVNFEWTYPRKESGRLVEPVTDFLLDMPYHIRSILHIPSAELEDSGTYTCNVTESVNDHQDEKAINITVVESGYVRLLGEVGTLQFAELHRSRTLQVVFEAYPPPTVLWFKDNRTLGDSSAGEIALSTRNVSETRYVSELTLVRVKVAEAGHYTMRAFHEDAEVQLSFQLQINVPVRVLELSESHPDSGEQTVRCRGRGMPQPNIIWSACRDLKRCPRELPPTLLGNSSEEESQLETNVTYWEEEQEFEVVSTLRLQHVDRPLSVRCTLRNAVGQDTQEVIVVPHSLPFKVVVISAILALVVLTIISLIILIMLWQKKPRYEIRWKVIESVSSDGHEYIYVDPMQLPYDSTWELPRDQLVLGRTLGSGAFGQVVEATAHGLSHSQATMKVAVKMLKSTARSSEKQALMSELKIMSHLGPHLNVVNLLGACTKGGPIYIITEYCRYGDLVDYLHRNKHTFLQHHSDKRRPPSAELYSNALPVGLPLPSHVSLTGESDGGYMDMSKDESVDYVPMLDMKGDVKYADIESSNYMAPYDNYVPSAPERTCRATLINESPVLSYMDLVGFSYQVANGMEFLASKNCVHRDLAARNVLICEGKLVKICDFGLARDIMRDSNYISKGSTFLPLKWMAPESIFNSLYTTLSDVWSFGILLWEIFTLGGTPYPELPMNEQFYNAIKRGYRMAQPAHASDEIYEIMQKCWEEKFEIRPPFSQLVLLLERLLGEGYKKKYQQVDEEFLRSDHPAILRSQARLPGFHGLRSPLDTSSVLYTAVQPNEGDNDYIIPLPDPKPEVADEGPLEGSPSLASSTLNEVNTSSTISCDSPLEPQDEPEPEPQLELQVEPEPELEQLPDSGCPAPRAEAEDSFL
T14 sequence (P35968 20-1356): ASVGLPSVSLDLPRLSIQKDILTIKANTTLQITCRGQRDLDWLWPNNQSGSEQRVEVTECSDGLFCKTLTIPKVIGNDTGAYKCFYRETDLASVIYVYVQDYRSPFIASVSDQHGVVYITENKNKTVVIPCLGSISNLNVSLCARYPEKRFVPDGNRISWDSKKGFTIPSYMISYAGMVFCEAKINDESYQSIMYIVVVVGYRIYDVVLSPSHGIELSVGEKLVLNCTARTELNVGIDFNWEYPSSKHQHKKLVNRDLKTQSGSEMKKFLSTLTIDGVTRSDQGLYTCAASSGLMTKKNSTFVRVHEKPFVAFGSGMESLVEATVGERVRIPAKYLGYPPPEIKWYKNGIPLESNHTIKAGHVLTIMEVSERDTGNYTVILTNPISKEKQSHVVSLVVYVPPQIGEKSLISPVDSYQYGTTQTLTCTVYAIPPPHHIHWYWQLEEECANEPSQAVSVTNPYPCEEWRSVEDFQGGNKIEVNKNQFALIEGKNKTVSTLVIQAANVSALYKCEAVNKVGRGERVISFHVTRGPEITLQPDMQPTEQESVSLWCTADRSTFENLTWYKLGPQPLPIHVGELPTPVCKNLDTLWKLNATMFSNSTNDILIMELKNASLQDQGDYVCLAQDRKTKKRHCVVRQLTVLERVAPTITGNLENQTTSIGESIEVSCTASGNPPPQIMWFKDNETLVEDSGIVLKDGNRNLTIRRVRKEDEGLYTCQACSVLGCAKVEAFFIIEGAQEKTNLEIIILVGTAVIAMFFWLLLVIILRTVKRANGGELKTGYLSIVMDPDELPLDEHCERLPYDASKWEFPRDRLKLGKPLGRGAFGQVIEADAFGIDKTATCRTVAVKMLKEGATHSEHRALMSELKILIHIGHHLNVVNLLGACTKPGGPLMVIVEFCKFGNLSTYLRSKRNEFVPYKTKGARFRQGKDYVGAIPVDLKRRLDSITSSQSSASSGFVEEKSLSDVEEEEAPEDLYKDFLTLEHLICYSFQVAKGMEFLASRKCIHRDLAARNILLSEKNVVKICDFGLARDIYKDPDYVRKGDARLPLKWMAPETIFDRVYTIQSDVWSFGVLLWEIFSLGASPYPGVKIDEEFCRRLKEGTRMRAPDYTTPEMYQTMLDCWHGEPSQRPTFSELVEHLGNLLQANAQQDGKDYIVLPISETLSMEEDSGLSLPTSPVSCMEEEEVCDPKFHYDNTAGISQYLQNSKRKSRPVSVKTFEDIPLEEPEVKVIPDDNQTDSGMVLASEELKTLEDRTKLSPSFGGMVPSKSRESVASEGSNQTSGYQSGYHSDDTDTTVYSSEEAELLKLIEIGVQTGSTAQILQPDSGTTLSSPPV
T2 sequence (P00533 25-1210 L858R): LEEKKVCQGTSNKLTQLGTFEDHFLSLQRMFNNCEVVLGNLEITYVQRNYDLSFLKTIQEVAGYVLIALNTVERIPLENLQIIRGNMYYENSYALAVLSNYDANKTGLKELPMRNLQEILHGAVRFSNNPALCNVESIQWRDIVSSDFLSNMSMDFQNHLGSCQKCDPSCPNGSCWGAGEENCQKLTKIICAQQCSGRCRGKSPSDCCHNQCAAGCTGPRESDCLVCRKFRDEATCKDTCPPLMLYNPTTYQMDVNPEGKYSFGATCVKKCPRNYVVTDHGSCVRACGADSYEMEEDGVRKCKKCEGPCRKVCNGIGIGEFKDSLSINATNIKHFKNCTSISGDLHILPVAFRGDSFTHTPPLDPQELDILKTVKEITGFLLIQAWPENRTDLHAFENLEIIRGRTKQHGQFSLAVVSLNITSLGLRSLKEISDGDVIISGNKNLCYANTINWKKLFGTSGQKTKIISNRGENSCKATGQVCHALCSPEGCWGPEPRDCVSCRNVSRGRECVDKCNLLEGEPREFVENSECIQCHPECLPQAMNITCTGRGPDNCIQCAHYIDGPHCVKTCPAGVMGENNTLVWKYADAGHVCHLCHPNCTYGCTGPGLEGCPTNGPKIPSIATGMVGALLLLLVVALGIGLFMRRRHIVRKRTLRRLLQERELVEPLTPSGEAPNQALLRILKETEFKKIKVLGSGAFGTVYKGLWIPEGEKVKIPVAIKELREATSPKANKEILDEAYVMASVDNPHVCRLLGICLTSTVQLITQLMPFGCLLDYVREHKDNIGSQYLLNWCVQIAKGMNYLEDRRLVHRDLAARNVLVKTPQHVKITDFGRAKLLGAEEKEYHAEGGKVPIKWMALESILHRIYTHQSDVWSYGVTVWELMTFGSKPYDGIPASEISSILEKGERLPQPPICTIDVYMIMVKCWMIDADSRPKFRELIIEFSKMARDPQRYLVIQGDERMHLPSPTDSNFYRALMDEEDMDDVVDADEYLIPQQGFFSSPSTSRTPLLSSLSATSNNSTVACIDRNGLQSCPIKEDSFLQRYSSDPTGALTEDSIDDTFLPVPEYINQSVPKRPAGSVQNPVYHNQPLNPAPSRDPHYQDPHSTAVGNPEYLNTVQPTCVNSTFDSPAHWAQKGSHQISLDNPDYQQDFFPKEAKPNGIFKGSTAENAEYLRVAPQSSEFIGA
T7 sequence (P10721 26-976): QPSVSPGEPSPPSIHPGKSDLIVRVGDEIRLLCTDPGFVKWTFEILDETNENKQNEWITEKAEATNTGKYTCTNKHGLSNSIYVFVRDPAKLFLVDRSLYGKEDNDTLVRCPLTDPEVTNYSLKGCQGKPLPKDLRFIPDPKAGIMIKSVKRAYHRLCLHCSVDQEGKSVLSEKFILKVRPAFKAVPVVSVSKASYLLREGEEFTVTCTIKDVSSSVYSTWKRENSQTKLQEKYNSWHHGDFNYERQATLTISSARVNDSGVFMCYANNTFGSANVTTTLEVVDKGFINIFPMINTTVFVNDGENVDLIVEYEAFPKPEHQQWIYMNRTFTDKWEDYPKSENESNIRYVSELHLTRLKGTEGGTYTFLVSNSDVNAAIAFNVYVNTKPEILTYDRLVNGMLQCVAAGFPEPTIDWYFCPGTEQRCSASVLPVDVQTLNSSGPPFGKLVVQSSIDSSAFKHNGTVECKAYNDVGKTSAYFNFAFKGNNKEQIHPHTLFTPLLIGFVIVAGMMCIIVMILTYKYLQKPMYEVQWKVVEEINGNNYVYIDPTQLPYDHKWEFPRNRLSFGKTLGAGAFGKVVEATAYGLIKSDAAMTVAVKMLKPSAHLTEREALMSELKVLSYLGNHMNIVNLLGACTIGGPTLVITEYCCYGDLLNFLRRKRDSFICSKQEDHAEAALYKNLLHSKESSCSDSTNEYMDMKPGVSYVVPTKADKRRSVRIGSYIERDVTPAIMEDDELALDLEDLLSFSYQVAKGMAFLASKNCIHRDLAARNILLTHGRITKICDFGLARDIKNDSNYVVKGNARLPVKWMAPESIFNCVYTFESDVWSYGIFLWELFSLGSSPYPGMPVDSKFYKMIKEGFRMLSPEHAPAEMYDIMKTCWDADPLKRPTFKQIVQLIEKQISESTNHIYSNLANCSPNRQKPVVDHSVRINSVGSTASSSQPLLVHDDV
T13 sequence (Q16539 whole entry): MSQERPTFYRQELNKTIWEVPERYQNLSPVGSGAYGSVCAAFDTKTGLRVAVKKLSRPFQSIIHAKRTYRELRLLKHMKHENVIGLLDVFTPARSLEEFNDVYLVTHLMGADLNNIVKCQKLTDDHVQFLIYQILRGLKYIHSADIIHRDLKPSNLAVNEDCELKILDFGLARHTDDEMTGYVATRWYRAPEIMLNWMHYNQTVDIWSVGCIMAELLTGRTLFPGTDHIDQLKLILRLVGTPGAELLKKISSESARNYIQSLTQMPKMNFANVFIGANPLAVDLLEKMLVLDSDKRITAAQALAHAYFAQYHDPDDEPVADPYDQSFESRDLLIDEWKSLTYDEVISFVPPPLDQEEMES

Cc1ccc(Nc2nccc(N(C)c3ccc4[nH]ccc4c3)n2)cc1S(N)(=O)=O [MKP101]
inhibition at 1 µM (PKCζ (h)): 5 ± 4%
inhibition at 1 µM (EGFR (L858R); 1 μM, mean ± S.D., read-out: % inhibition at 1 μM, EGFR(L858R)(h)): 96 ± 1%
IC50 (EGFR (L858R); in vitro kinase assay, mean values): 17 nM
Inhibition of EGFR phosphorylation (phosphorylated EGFR): reduced the levels of phosphorylated EGFR
inhibition at 1 µM (CDK5/p35 (h)): 38 ± 3%
inhibition at 1 µM (PKCβI (h)): 7 ± 5%
inhibition at 1 µM (FGFR3; 1 μM, mean ± S.D., read-out: % inhibition at 1 μM, FGFR3 (h)): 96%
IC50 (FGFR3; in vitro kinase assay): 43 nM
inhibition at 1 µM (PhKγ2 (h)): 0%
inhibition at 1 µM (cKit; 1 μM, mean ± S.D., read-out: % inhibition at 1 μM, cKit(h)): 99%
IC50 (cKit; in vitro kinase assay): 108 nM
inhibition at 1 µM (GSK3β (h)): 18 ± 4%
inhibition at 1 µM (Abl (h)): 100 ± 2%
inhibition at 1 µM (PKCδ (h)): 0%
inhibition at 1 µM (CDK1/cyclin B (h)): 18 ± 8%
inhibition at 1 µM (PKCμ (h)): 7 ± 1%
inhibition at 1 µM (SAPK2a (h)): 82 ± 2%
inhibition at 1 µM (VEGFR-2; 1 μM, mean ± S.D., read-out: % inhibition at 1 μM, VEGFR-2 (h)): 94 ± 2%
IC50 (VEGFR-2; in vitro kinase assay): 32 nM
IC50 (HCC827 cells): 160 nM
inhibition at 1 µM (FLT3 (h)): 91 ± 1%
inhibition at 1 µM (CDK3/cyclin E (h)): 6 ± 2%
inhibition at 1 µM (CaMKIIγ (h)): 37 ± 2%
inhibition at 1 µM (PKCθ (h)): 16 ± 2%
inhibition at 1 µM (ROCK-II (h)): 4 ± 1%
inhibition at 1 µM (PDGFRβ; 1 μM, mean ± S.D., read-out: % inhibition at 1 μM, PDGFRβ (h)): 95 ± 1%
IC50 (PDGFRβ; in vitro kinase assay): 70 nM
inhibition at 1 µM (PKG1β (h)): 7 ± 1%
inhibition at 1 µM (PKCη (h)): 0%
inhibition at 1 µM (PKBβ (h)): 14 ± 4%
inhibition at 1 µM (MAPK2 (h)): 0%
